One molecule from BindingDB's records for doi:10.1021/jm050532w (Glaxosmithkline, 2005) can be followed below.

The structures appear in SMILES notation.

Assay [1] deals with T1, Oxysterols receptor LXR-alpha (Homo sapiens, UniProt Q13133).
T1 sequence (Q13133 whole entry): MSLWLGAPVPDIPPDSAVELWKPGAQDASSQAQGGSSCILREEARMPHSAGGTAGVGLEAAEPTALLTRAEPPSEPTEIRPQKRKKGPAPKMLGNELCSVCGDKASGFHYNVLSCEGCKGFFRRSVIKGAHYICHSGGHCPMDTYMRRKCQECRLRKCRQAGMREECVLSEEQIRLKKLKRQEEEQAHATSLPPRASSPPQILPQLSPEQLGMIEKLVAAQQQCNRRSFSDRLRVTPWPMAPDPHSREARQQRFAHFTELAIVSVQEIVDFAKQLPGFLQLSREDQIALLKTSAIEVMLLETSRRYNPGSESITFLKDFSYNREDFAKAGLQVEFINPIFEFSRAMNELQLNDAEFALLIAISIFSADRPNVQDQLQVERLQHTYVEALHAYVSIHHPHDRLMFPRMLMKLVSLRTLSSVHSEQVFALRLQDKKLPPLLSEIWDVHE
Description: Cell-Free Ligand Sensing Assay (LiSA)-LXRalpha-SRC1 Assay. To be noted: pH 7.5; 22 °C. How it is done: (§1) The LXR LiSA measures the ligand-dependent recruitment of a 25 amino acid fragment of the steroid receptor coactivator 1 (SRC1) to the ligand-binding domain of the receptor. The biotinylated protein was incubated with streptavidin-AlloPhycoCyanin, biotinylated SRC-1 peptide, and streptavidin-labeled europium. The fluorescence resonance energy transfer was then counted on a Wallac Victor fluorescent plate reader in a time-resolved mode.

In assay [2] the target is T2, Oxysterols receptor LXR-beta (Homo sapiens, UniProt P55055).
T2 sequence (P55055 whole entry): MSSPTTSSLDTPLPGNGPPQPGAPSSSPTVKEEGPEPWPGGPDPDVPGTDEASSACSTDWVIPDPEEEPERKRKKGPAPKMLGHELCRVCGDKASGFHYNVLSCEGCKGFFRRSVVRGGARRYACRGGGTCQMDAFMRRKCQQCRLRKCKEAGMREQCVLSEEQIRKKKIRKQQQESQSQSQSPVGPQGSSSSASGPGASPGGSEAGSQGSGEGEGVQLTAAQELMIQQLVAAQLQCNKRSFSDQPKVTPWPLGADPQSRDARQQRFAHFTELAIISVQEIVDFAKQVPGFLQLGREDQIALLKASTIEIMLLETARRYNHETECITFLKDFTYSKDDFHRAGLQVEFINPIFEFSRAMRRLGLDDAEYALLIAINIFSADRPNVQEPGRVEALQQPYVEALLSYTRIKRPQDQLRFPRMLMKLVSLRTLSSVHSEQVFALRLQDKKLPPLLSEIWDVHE
Put plainly: Cell-Free Ligand Sensing Assay (LiSA)-LXRbeta-SRC1 Assay. To be noted: pH 7.5; 22 °C. How it is done:
as §1

Regarding `COc1ccc(N=C2C(=O)N(c3ccccc3)C(=O)C2c2ccccc2)cc1` (configuration not stated) [3-[(4-methoxyphenyl)amino]-1,4-diphenyl-2,5-dihydro-1H-pyrrole-2,5-dione], the EC50 – broadly, the midpoint of the concentration-response curve – came to 275 nM in assay [1] and 260 nM in assay [2].
